Experimental data published in patent publication US20230043678A1, “USE OF 5-METHYLTETRAHYDROFOLATE” (priority 2019, published 2023).

Test system: fetal rat heart
Assay: Effects of homocysteine on fetal rats, heart slices (Example 7)
Type: in vivo, SD rats
Description: In order to investigate an effect of homocysteine on the fetal heart, SD rats were selected, male and female rats were mated in a cage at a ratio of 1:1 overnight, a vaginal plug was checked the next morning, a day when the vaginal plug was found was regarded as day 0 of pregnancy, and pregnant mice were fed alone. A 1% homocysteine (HCY) solution was used, an injection volume was calculated according to an injection volume of 1 ml/100 g, a dose was (100 mg/kg/d), on the seventh day of pregnancy, the pregnant mice were intraperitoneally injected once a day until the 17th day of pregnancy and injected once on the 19th day of pregnancy, no fluid was withdrawn during each injection, the pregnant mice were subjected to chloral hydrate anesthesia on the 20th day of pregnancy, and a fetus was obtained by cesarean section. High-dose HCY model pregnant mice were investigated by the same method as above, the dose was 200 mg/kg/d and the other conditions were the same. Fetal rats were dissected, the heart was taken and sliced for observation, and the results were as follows.

N[C@@H](CCS)C(=O)O [HCY, homocysteine]
fetal rat heart histology (high-dose HCY 200 mg/kg/d intraperitoneal to pregnant rats): led to red staining of muscle cytoplasm of the fetal rats | fetal rat heart histology (low-dose HCY 100 mg/kg/d intraperitoneal to pregnant rats): led to widening of myocardial trabeculae in fetal rats and atria was filled with red blood cells
